# In EP4119948A1, “METHOD FOR STRATIFICATION AND TREATMENT OF MULTIPLE SCLEROSIS” (Universität Zürich, priority 2021, dated 2023):
# Columns and labels:
# [1] = tested on: CSF-infiltrating CD4+ T cells; assay: Proliferative response (3H-thymidine, stimulation index) of PHA-expanded CSF-infiltrating CD4+ T cells to peptides presented by autologous PBMCs; format: cell-based, human; conditions: peptide 10 µM, 72 h, 105 MS patients
# Experimental: (§1) PBMCs were freshly isolated using Ficoll (Eurobio, Germany) density gradient centrifugation. CSF-infiltrating CD4^+ T cells were expanded with PHA in a single round of stimulation using a previously reported protocol aimed to reduce TCR repertoire bias (Planas et al., […], Sci Transl Med, 10(462):eaat4301). 6 × 10^4 PHA-expanded CSF-infiltrating CD4^+ T cells were seeded in quadruplicate with 2 × 10^5 irradiated autologous PBMCs as antigen presenting cells and stimulated with peptides (Table 2) at a final concentration of 10 µM and with a T Cell Activation Kit (anti-CD3, anti-CD28, anti-CD2 beads) (Miltenyi Biotec) as positive control. Table 2. GDP-L-FS, myelin and CEF Peptides (amino acid sequences)
# Proliferation was measured 72 h after stimulation using 3H-thymidine (Hartmann Analytic, Braunschweig, Germany) as previously reported (Planas et al., 2018). The stimulation index of single wells (SI) was calculated as follows: SI = (cpm well with peptide) / (Mean cpm wells without peptide). A well was considered positive if SI ≥2.
# [2] = tested on: CSF-infiltrating CD4+ T cells; assay: IFN-γ release (ELISA) of PHA-expanded CSF-infiltrating CD4+ T cells stimulated with peptides presented by autologous PBMCs; format: cell-based, human; conditions: peptide 10 µM, 105 MS patients
# Experimental: as §1
# Release of IFN-γ was measured using the ELISA MAX™ Deluxe Set Human IFN-γ (Biolegend, San Diego, CA, USA) according to the manufacturer's instructions. A well was considered positive if IFN-γ ≥20 pg/ml and a patient was considered positive for a peptide if the mean IFN-γ of the four wells was ≥ 20 pg/ml and at least 3 of the 4 wells were positive.
substance,measurement,setting,value
"MBP 83-99 (ENPVVHFFKNIVTPRT; listed as Homo sapiens) [MBP (83-99), myelin peptide …]",Positive wells % Proliferation,"[1]; well positive if SI ≥2, quadruplicates (420 wells per peptide)",1.92%
same,Positive patients % Proliferation,[1]; patient positive if mean SI of four wells ≥2 and at least 3 of four wells SI ≥2,0.96%
same,Positive wells % IFNγ release,"[2]; well positive if IFN-γ ≥20 pg/ml, quadruplicates (420 wells per peptide)",6.28%
same,Positive patients % IFNγ release,[2]; patient positive if mean IFN-γ of four wells ≥20 pg/ml and at least 3 of 4 wells positive,5.71%
